Key:
[1] = target: T1, recombinant human galectin-3 (Homo sapiens, UniProt P17931); test: Inhibition of galectin-3 binding to Galα3Galβ4GlcNAcβ-HRP conjugate (galectin-3 coated microwells); details: for IC50: competitive inhibition of Galα3Galβ4GlcNAcβ trisaccharide:HRP conjugate binding to galectin-3 coated microwells, five-fold serial dilutions; for Krel: ratio of IC50 of reference compound 25 and IC50 of the inhibitor
T1 construct: made in house; host or cells: Escherichia coli
Experimental: NMR-spectra were recorded with a Bruker DRX-400 instrument. Chemical shifts are given in ppm, with reference to internal CHCl3 (δ 7.26 ppm) or HDO (δ 4.81 ppm). Chemical shifts and coupling constants were obtained from ^1H-NMR and proton resonances were assigned from COSY experiments. High-resolution FAB mass spectra (HRMS) were recorded with a JEOL SX-120 instrument. MALDI-TOF Spectra were recorded with a Bruker, Biflex instrument. Column chromatography was performed on SiO2 (Matrex, 60 Å, 35–70 μm, Grace Amicon) and TLC was carried out on SiO2 60 F254 (Merck) with detection under UV light and developed with aqueous sulfuric acid. Concentrations were made using rotary evaporation with bath temperature at or below 40° C. CH2Cl2 and CH3CN were dried by distillation from CaH2. Pyridine was dried over 4 Å molecular sieves. DMF was distilled and dried over 4 Å molecular sieves. MeOH and EtOH were dried over 3 Å molecular sieves. Microwell plates were from Nalge Nunc International (Nunc-immuno plate, maxisorp surface). PBS containing 0.05% Tween 20 is abbreviated PBS-T and PBS-T containing 1% BSA is abbreviated PBSA-T. Recombinant human galectin-3 was produced in Escherichia coli and purified as previously described (S. M. Massa et al, 1993). […] Microwell plates were developed with a TMB-peroxidase substrate kit (BioRad 172–1066) according to the manufacturers recommendations.
The compounds prepared above (12–24) were tested for their ability to inhibiting the binding of galectin-3 to a Galα3Galβ4GlcNAcβ trisaccharide:horseradish peroxidase conjugate.
Screening experiments. […] The wells were washed with PBS-T after 1 hour incubation at room temperature; followed by development with the TMB-peroxidase substrate kit. The reaction was stopped after 60 min by addition of 1N sulfuric acid (100 μL/well) and optical density was read at 450 nm. Each experiment was conducted twice with each sample in duplicate. […] Microtiter plate wells were coated with recombinant galectin-3 (10 μg/ml, 50 μl/well) from E. coli at 4° C. overnight, then washed three times with PBS-T. The wells were blocked with PBSA-T (100 μl/well) for 1 hour at room temperature, followed by washing with PBS-T. To the first well was added 125 μL of inhibitors 16, 18–19and 25 (0.2 mM in PBS-T). A five-fold serial dilution was performed by transfering 25 μL from the first well to a second well containing 100 μL PBS-T, mixing, then transfering 25 μL from the second well to a third well also containing 100 μL PBS-T, and so on to the eight well from which 25 μL were discarded. The dilution series was done in duplicate. […] Incubation, washing, and detection was performed as described above. The data was analyzed with non-linear regression analysis using the program Kaleidagraph™ from Synergy Software.

galectins = details: cited from earlier work

T1 sequence (P17931 whole entry): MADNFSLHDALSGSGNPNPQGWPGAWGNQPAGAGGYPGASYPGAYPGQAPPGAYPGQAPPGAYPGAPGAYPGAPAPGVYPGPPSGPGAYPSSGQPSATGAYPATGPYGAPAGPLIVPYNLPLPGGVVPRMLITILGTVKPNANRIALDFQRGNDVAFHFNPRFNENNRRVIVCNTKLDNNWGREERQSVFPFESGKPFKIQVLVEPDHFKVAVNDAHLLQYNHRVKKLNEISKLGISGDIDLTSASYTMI

| IC50 [1] [µM] | Krel [1] | inhibition at 40 µM ([1]; 40 μM inhibitor concentration, screening experiment, read-out: Percent inhibition of Galα3Galβ4GlcNAcβ:HRP conjugate binding to galectin-3) [%] | Compound | affinity relative to lactose (times lower) (galectins; galectins, compared with lactose) | Kd (galectins; all galectins) [µM] |
| --- | --- | --- | --- | --- | --- |
| 23 | 9 | – | CO[C@@H]1O[C@H](CO)[C@@H](O[C@@H]2O[C@H](CO)[C@H](O)[C@H](NC(=O)c3ccccc3)[C@H]2O)[C@H](O)[C@H]1NC(C)=O [Compound 16, methyl 2-acetamido-2-deoxy-4-O-(3-benzamido-3-deoxy-β-D-galactopyranosyl)-β-D-glucopyranoside] | – | – |
| 11.2 | 18 | – | CO[C@@H]1O[C@H](CO)[C@@H](O[C@@H]2O[C@H](CO)[C@H](O)[C@H](NC(=O)c3c(F)c(F)c(F)c(F)c3C(=O)O)[C@H]2O)[C@H](O)[C@H]1NC(C)=O [Compound 19, methyl 2-acetamido-2-deoxy-4-O-(3-[2-carboxy-3,4,5,6-tetrafluorobenzamido]-3-deoxy-β-D-galactopyranosyl)-β-D-glucopyranoside] | – | – |
| 199 | 1 | 13 | CO[C@@H]1O[C@H](CO)[C@@H](O[C@@H]2O[C@H](CO)[C@H](O)[C@H](O)[C@H]2O)[C@H](O)[C@H]1NC(C)=O [Compound 25, methyl 4-O-β-D-galactopyranosyl-2-acetamido-2-deoxy-β-D-glucopyranoside, reference compound] | – | – |

Continued, molecule first:

| Compound | IC50 [1] [µM] | Krel [1] | inhibition at 40 µM ([1]; 40 μM inhibitor concentration, screening experiment, read-out: Percent inhibition of Galα3Galβ4GlcNAcβ:HRP conjugate binding to galectin-3) [%] | affinity relative to lactose (times lower) (galectins; galectins, compared with lactose) | Kd (galectins; all galectins) [µM] |
| --- | --- | --- | --- | --- | --- |
| COc1c(F)c(F)c(C(=O)N[C@H]2[C@@H](O)[C@@H](CO)O[C@@H](O[C@H]3[C@H](O)[C@@H](NC(C)=O)[C@H](OC)O[C@@H]3CO)[C@@H]2O)c(F)c1F [Compound 18, methyl 2-acetamido-2-deoxy-4-O-(3-[4-methoxy-2,3,5,6-tetrafluorobenzamido]-3-deoxy-β-D-galactopyranosyl)-β-D-glucopyranoside] | 4.8 | 41 | – | – | – |
| O=C[C@H](O)[C@@H](O)[C@@H](O)[C@H](O)CO [D-galactose] | – | – | – | 50–100 times lower | – |
| OC[C@H]1O[C@@H](O[C@H]2[C@H](O)[C@@H](O)C(O)O[C@@H]2CO)[C@H](O)[C@@H](O)[C@H]1O (some centres unmarked) [lactose] | – | – | – | – | 500 to 1000 |
